Reference: US20250064941A1, “SIGLEC LIGANDS, CONJUGATES, AND METHODS OF USE THEREOF” (Osprey Biopharmaceuticals, Inc., priority 2023, published 2025)
pKd: −log10 of the molar value.

Key:
[1] = biological target: T1, human Siglec-2/CD22 protein (Homo sapiens, UniProt P20273); experiment: SPR binding affinity to human CD22; settings: steady-state analysis
T1 construct: purchased Acro Biosystems SI2-H82E3
T1 sequence (P20273 20-847): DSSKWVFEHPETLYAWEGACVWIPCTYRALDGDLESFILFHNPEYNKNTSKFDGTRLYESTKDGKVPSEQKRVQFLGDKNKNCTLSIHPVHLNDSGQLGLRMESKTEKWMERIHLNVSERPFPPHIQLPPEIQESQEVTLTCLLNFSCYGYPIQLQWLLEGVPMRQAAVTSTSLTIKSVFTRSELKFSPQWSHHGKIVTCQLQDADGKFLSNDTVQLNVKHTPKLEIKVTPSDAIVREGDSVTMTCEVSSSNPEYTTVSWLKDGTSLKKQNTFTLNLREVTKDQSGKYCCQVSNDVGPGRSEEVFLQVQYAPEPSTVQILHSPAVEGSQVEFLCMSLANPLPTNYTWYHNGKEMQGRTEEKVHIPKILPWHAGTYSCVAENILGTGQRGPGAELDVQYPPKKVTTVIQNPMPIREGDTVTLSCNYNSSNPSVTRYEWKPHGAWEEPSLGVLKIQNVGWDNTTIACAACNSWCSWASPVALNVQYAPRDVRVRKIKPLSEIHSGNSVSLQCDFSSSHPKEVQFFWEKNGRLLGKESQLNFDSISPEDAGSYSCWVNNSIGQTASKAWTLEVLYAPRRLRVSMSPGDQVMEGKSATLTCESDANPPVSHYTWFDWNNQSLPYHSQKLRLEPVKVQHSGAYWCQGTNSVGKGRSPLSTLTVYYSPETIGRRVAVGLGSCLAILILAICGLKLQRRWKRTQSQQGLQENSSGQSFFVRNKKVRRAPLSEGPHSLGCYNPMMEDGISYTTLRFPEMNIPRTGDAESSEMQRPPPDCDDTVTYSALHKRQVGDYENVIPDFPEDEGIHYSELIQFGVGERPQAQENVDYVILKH
Outline: (§1)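 Biotinylated CD22 desialylated with SialoExo (4 h, 37° C) before capture on streptavidin chip. Running buffer 10 mM HEPES, 150 mM NaCl, 0.05% Tween-20, pH 7.5, 1% DMSO, with DMSO solvent correction; 120 s dissociation. Compound affinities from steady-state analysis.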

cynomolgus Siglec-2/CD22 = cynomolgus Siglec-2/CD22 (Macaca fascicularis, UniProt A0A2K5WCZ6); experiment: biochemical; format: binding; settings: SPR, steady-state analysis; read-out: Affinity cyno CD22
Outline: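 SPR with desialylated (SialoExo, 4 h, 37° C.) cynomolgus CD22 amine-coupled to a CM5 chip. Running buffer 10 mM HEPES, 150 mM NaCl, 0.05% Tween-20, pH 7.5, 1% DMSO, with solvent correction; 120 s dissociation. Affinities from steady-state analysis.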

[2] = biological target: T2, mouse Siglec-2-Fc-Avi (CD22) (Mus musculus, UniProt P35329); experiment: SPR binding affinity to mouse CD22; settings: steady-state analysis
T2 construct: made in house
T2 sequence (P35329 22-708 limits assumed): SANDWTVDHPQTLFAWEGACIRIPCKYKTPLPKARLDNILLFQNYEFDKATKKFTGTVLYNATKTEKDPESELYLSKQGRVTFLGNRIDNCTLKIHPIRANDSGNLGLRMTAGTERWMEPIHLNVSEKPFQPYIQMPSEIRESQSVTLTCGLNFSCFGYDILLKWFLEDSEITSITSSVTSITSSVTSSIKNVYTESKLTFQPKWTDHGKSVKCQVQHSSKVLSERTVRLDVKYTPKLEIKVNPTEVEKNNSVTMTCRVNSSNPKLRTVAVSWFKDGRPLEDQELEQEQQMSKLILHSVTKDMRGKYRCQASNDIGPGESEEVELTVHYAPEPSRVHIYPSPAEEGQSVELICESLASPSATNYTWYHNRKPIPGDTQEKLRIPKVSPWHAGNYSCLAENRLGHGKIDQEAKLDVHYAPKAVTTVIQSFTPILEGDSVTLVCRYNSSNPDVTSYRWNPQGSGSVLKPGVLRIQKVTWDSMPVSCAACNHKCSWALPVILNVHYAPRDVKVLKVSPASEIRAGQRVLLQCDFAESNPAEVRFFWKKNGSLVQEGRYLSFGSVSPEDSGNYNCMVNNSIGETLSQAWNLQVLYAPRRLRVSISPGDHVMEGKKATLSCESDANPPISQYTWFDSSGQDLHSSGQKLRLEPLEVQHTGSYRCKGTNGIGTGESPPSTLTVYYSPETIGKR
Outline: as §1

Chain of cynomolgus Siglec-2/CD22 (A0A2K5WCZ6 entry or part of it): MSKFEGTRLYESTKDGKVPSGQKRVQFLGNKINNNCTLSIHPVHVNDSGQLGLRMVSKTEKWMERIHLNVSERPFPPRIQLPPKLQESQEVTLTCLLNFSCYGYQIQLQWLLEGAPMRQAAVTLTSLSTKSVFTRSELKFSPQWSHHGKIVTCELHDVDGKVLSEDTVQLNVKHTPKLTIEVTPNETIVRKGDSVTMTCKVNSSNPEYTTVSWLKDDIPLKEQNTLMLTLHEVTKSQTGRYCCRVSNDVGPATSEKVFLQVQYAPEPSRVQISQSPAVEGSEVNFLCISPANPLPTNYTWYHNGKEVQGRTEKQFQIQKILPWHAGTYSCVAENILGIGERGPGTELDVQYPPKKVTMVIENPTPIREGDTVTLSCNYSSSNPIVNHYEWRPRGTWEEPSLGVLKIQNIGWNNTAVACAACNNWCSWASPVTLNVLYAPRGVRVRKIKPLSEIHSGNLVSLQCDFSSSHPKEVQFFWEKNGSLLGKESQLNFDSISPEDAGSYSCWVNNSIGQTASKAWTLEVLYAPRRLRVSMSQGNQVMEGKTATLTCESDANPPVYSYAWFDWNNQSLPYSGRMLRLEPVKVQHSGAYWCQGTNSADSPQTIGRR

pKd [1]	pKd (cynomolgus Siglec-2/CD22)	pKd [2]	Compound
5.00 to 6.00	5.00 to 6.00	> 6.00	C#CCOCCOCCO[C@]1(C(=O)O)C[C@H](O)[C@@H](NC(=O)CO)[C@H]([C@H](O)[C@H](O)CNC(=O)Cc2cccc(O)c2)O1 [Compound 152, (2R,4S,5R,6R)-6-((1R,2R)-1,2-dihydroxy-3-(2-(3-hydroxyphenyl)acetamido)propyl)-4-hydroxy-5-(2-hydroxyacetamido)-2-(2-(2-(prop-2-yn-1-yloxy)ethoxy)ethoxy)tetrahydro-2H-pyran-2-carboxylic acid]
5.00 to 6.00	< 5.00	< 5.00	C#CCOCCOCCO[C@]1(C(=O)O)C[C@H](O)[C@@H](NC(=O)CO)[C@H]([C@H](O)[C@H](O)CNC(=O)Cc2ccc(-c3cccnc3)cc2)O1 [Compound 82, (2R,4S,5R,6R)-6-((1R,2R)-1,2-dihydroxy-3-(2-(4-(pyridin-3-yl)phenyl)acetamido)propyl)-4-hydroxy-5-(2-hydroxyacetamido)-2-(2-(2-(prop-2-yn-1-yloxy)ethoxy)ethoxy)tetrahydro-2H-pyran-2-carboxylic acid]
> 6.00	> 6.00	5.00 to 6.00	C#CCOCCCCCCO[C@]1(C(=O)O)C[C@H](O)[C@@H](NC(=O)CO)[C@H]([C@H](O)[C@H](O)CNC(=O)Cc2ccc(Cl)cc2)O1 [Compound 113, (2R,4S,5R,6R)-6-((1R,2R)-3-(2-(4-chlorophenyl)acetamido)-1,2-dihydroxypropyl)-4-hydroxy-5-(2-hydroxyacetamido)-2-((6-(prop-2-yn-1-yloxy)hexyl)oxy)tetrahydro-2H-pyran-2-carboxylic acid]
> 6.00	> 6.00	5.00 to 6.00	C#CCOCCCCCCO[C@]1(C(=O)O)C[C@H](O)[C@@H](NC(=O)CO)[C@H]([C@H](O)[C@H](O)CNC(=O)Cc2ccc(Cl)c(F)c2)O1 [Compound 130, (2R,4S,5R,6R)-6-((1R,2R)-3-(2-(4-chloro-3-fluorophenyl)acetamido)-1,2-dihydroxypropyl)-4-hydroxy-5-(2-hydroxyacetamido)-2-((6-(prop-2-yn-1-yloxy)hexyl)oxy)tetrahydro-2H-pyran-2-carboxylic acid]
> 6.00	> 6.00	5.00 to 6.00	CC(=O)NCCOCCOCCOCCOCCC(=O)NCCCCCO[C@]1(C(=O)O)C[C@H](O)[C@@H](NC(=O)CO)[C@H]([C@H](O)[C@H](O)CNC(=O)Cc2ccc(Cl)cc2)O1 [Cpd. 241, (2R,4S,5R,6R)-6-((1R,2R)-3-(2-(4-chlorophenyl)acetamido)-1,2-dihydroxypropyl)-2-((2,18-dioxo-6,9,12,15-tetraoxa-3,19-diazatetracosan-24-yl)oxy)-4-hydroxy-5-(2-hydroxyacetamido) tetrahydro-2H-pyran-2-carboxylic acid]
5.00 to 6.00	< 5.00	< 5.00	C#CCOCCOCCO[C@]1(C(=O)O)C[C@H](O)[C@@H](NC(=O)CO)[C@H]([C@H](O)[C@H](O)CNC(=O)Cc2ccc(-c3ccccc3)nc2)O1 [Compound 79, (2R,4S,5R,6R)-6-((1R,2R)-1,2-dihydroxy-3-(2-(6-phenylpyridin-3-yl)acetamido)propyl)-4-hydroxy-5-(2-hydroxyacetamido)-2-(2-(2-(prop-2-yn-1-yloxy)ethoxy)ethoxy)tetrahydro-2H-pyran-2-carboxylic acid]
> 6.00	> 6.00	> 6.00	C#CCOCCCCCCO[C@]1(C(=O)O)C[C@H](O)[C@@H](NC(=O)CO)[C@H]([C@H](O)[C@H](O)CNC(=O)Cc2ccc(-c3ccc4[nH]cc(C)c4c3)cc2)O1 [Compound 1, (2R,4S,5R,6R)-6-((1R,2R)-1,2-dihydroxy-3-(2-(4-(3-methyl-1H-indol-5-yl)phenyl)acetamido)propyl)-4-hydroxy-5-(2-hydroxyacetamido)-2-((6-(prop-2-yn-1-yloxy)hexyl)oxy)tetrahydro-2H-pyran-2-carboxylic acid]
